Measured values reported in ChEMBL document CHEMBL1127980, “A convenient synthesis of 2-amino-2-oxazolines and their pharmacological evaluation at cloned human adrenergic receptors” (Bioorg Med Chem Lett, 1994).
pEC50, pKi: −log10 of the molar value.

Key:
[1] = target: T1, Alpha-2C adrenergic receptor (Homo sapiens, UniProt P18825); experiment: Binding affinity towards human Alpha-2C adrenergic receptor by the displacement of [3H]rauwolscine
T1 sequence (P18825 whole entry): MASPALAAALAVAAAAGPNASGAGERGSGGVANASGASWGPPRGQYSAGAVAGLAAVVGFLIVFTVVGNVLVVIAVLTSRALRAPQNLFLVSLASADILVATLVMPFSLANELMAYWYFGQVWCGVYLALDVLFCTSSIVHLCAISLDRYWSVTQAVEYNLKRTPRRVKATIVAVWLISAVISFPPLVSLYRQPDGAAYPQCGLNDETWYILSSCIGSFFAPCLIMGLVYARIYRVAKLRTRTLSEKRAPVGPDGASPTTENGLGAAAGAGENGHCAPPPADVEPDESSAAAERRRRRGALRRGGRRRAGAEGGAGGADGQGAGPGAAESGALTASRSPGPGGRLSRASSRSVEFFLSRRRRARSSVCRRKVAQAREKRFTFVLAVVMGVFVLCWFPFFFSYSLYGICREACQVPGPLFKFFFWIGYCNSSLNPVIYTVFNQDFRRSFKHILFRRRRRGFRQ

[2] = target: T2, Alpha-2A adrenergic receptor (Homo sapiens, UniProt P08913); experiment: Agonistic activity towards human Alpha-2A adrenergic receptor was measured as ability to inhibit forskolin-stimulated synthesis of cyclic adenosine monophosphate; format: functional
T2 sequence (P08913 whole entry): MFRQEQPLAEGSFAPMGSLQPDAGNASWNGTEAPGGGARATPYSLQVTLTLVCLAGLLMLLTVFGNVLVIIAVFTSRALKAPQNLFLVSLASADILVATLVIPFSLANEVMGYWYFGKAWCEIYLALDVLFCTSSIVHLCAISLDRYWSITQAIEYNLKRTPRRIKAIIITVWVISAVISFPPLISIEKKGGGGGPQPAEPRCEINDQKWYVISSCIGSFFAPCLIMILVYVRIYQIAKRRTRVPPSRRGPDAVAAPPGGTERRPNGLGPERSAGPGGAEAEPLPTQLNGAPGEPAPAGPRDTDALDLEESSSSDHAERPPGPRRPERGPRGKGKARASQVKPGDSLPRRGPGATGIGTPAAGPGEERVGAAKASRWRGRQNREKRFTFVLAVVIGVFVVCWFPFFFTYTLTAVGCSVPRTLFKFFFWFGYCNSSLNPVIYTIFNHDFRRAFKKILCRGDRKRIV

[3] = target: T3, Alpha-1A adrenergic receptor (Homo sapiens, UniProt P35348); experiment: Binding affinity towards human Alpha-1C adrenergic receptor by the displacement of [3H]prazosin
T3 sequence (P35348 whole entry): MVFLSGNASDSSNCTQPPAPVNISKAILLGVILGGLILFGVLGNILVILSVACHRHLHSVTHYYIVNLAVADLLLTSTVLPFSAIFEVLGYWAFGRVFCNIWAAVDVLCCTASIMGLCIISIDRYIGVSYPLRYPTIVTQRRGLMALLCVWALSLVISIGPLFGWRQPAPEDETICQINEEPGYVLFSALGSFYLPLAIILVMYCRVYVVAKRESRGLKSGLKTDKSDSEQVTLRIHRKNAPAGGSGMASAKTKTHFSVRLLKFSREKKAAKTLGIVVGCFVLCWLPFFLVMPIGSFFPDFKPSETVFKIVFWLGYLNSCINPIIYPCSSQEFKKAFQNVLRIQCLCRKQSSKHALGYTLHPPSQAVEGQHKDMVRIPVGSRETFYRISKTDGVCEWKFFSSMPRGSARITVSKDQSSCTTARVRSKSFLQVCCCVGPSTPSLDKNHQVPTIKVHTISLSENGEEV

[4] = target: T4, Alpha-2B adrenergic receptor (Homo sapiens, UniProt P18089); experiment: Binding affinity towards human Alpha-2B adrenergic receptor by the displacement of [3H]rauwolscine
T4 sequence (P18089 whole entry): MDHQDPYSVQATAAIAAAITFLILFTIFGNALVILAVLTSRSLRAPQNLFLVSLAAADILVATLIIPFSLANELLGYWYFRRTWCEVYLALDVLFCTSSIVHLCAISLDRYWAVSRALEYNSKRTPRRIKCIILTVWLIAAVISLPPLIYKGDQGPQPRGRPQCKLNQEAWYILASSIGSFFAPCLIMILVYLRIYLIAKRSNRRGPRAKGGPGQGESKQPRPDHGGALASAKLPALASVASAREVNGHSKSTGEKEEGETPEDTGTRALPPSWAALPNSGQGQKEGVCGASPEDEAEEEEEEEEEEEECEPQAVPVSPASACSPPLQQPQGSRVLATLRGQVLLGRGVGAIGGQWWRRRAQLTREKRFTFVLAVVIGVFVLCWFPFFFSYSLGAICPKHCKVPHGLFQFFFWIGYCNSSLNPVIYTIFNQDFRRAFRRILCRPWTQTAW

[5] = target: T2, Alpha-2A adrenergic receptor; experiment: Binding affinity towards human Alpha-2A adrenergic receptor by the displacement of [3H]rauwolscine
[6] = target: T1, Alpha-2C adrenergic receptor; experiment: Agonistic activity towards human Alpha-2C adrenergic receptor was measured as ability to inhibit forskolin-stimulated synthesis of cyclic adenosine monophosphate; format: functional
[7] = target: T5, Alpha-1D adrenergic receptor (Homo sapiens, UniProt P25100); experiment: Binding affinity towards human Alpha-1A adrenergic receptor by the displacement of [3H]prazosin
T5 sequence (P25100 whole entry): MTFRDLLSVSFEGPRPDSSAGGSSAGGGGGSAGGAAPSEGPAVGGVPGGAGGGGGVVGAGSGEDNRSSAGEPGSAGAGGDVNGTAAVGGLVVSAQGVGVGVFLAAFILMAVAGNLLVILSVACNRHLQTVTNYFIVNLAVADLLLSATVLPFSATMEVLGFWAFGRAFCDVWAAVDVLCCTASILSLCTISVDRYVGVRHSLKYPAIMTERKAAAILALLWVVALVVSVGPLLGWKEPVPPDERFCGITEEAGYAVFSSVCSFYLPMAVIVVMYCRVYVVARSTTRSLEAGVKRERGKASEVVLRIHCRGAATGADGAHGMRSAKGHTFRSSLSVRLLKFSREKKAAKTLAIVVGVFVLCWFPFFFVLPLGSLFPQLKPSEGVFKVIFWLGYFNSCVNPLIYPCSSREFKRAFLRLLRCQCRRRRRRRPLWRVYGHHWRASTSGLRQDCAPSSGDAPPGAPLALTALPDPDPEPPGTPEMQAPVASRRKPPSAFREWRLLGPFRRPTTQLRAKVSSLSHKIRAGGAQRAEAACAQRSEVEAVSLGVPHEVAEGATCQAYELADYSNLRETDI

[8] = target: T4, Alpha-2B adrenergic receptor; experiment: Agonistic activity towards human Alpha-2B adrenergic receptor was measured as ability to inhibit forskolin-stimulated synthesis of cyclic adenosine monophosphate; format: functional

Row | pKi [1] | pEC50 [2] | pKi [3] | pKi [4] | pKi [5] | pEC50 [6] | pKi [7] | pEC50 [8] | SMILES
1 | 7.48 | 7.42 | 5.70 | 8.01 | 8.27 | 7.11 | 5.42 | 6.67 | C1CCCC(NC2=NCCO2)CC1
2 | 7.07 | 6.64 | 5.71 | 7.60 | 7.59 | 7.61 | 5.66 | 7.46 | c1ccc2c(c1)CCCC2NC1=NCCCO1 (stereo not given)
3 | 7.61 | 8.79 | 6.85 | 8.23 | 8.53 | 8.39 | 6.25 | 8.03 | CCC[C@H]1CCCCC1NC1=NCCO1 (stereo not given in full)
4 | 4.78 | – | 3.97 | 4.93 | 4.78 | – | 3.92 | – | C1COC(N2CCOCC2)=N1
5 | 6.54 | 6.56 | 5.22 | 7.15 | 6.74 | 6.72 | 5.05 | 6.14 | C1COC(NC(C2CC2)C2CC2)=N1 [RILMENIDINE]

Row | SMILES | pKi [1] | pEC50 [2] | pKi [3] | pKi [4] | pKi [5] | pEC50 [6] | pKi [7] | pEC50 [8]
6 | c1ccc2c(c1)CCCC2NC1=NCCO1 (stereo not given) | 7.92 | 8.93 | 6.90 | 8.67 | 8.63 | 8.66 | 6.69 | 8.45
